Data on four molecules can be found in publication PMC3085043 (Chemico-biological interactions, 2010).

Residue numbers refer to the chain shown, from its start. Read-outs that look alike come from different tables or passages of the source.

For data set [1], the target named is T1, AKR 1C3 (Homo sapiens, UniProt P42330).
T1 sequence (P42330 1-323): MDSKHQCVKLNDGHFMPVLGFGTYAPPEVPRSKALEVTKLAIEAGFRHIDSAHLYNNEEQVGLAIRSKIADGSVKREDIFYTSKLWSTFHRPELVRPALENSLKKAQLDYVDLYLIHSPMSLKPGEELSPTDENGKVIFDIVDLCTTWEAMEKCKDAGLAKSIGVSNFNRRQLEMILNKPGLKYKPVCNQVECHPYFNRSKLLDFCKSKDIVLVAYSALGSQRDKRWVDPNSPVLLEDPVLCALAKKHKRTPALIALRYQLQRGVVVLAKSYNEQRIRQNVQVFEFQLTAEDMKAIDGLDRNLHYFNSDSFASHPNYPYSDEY
The data set can be described thus: Kinetic constants for FAL and GGAL reduction, AKR1C3. It counts as biochemical. The settings on record: for Km / kcat: 0.1 M potassium phosphate pH 7.4, 0.1 mM NADPH.

In data set [2] the test system is human AKR 1B10. Conditions: 0.1 M potassium phosphate pH 7.4, 0.1 mM NADPH; cited from earlier work.
Data set [3] concerns the target T2, low-MW FAL-R and GGAL-R from stomach, lung and colon (Rattus norvegicus, UniProt D3ZF77).
T2 sequence (D3ZF77 1-324): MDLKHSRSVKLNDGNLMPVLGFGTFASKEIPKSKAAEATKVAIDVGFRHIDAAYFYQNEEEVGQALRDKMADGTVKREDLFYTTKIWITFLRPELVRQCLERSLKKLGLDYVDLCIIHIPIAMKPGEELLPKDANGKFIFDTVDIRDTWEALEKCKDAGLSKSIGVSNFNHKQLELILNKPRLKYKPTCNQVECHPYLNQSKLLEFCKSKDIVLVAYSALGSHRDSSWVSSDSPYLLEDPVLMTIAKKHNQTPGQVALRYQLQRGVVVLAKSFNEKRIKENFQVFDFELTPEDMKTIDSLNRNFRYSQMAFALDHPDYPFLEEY
The data set can be described thus: FAL-R/GGAL-R activity of low-MW reductases from rat stomach, lung and colon. It counts as biochemical. The settings on record: extra-hepatic enzymes (stomach, lung, colon).

Data set [4] addresses T3, AKR1C15 (Rattus norvegicus, UniProt D3ZF77). The settings on record: NADPH-linked reduction; reported values; cited from earlier work.
For data set [5], the system named is low-MW FAL-R and GGAL-R from liver. The data set can be described thus: FAL-R/GGAL-R activity of low-MW reductase from rat liver. It is filed as biochemical. Conditions: liver low-MW reductase.
Data set [6] concerns the target T4, AKR 1A1 (Homo sapiens, UniProt P14550).
T4 sequence (P14550 1-325): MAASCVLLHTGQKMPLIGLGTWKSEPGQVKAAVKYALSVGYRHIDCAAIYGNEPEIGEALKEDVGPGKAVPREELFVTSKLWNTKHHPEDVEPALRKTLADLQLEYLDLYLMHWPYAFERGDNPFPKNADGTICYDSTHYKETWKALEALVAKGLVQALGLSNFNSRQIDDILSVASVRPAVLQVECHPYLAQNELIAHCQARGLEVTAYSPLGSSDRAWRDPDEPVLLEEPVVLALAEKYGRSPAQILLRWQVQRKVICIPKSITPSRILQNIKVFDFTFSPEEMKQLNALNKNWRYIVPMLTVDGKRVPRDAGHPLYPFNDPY
The data set can be described thus: Kinetic constants for FAL and GGAL reduction, AKR1A1. It is filed as biochemical.

The target of data set [7] is human carbonyl reductase 1 (Homo sapiens, UniProt P16152). The data set can be described thus: Reduction of FAL and GGAL by carbonyl reductase 1. It counts as biochemical.
Data set [8] has as its target T5, AKR 1C2 (Homo sapiens, UniProt P52895).
T5 sequence (P52895 1-323): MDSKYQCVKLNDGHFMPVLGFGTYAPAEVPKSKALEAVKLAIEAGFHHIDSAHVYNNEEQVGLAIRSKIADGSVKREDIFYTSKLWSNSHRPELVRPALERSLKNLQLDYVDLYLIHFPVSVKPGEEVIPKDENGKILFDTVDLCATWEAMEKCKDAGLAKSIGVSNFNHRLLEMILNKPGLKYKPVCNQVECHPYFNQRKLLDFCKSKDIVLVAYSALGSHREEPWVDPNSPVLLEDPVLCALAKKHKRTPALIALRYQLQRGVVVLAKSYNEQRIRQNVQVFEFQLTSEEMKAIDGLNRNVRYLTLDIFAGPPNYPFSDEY
The data set can be described thus: Kinetic constants for FAL and GGAL reduction, AKR1C2. It is filed as biochemical.

In data set [9] the target is T6, purified hepatic FAL-R (AKR1C9) (Rattus norvegicus, UniProt P23457).
T6 sequence (P23457 1-322): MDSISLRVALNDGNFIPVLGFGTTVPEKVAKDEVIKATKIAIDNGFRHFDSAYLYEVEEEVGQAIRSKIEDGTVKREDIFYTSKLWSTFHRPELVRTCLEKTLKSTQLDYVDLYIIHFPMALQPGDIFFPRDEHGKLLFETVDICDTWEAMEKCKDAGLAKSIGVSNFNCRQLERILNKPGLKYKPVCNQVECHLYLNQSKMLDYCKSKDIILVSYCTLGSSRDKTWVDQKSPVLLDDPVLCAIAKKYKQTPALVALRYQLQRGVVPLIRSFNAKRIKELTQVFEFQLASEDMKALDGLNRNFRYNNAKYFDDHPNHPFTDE
The data set can be described thus: Reductase activity of hepatic low-MW FAL-R purified to homogeneity. Conditions: purified liver enzyme.

Data set [10] concerns the target microsomal FAL-DH and GGAL-DH (Rattus norvegicus, UniProt P30839). The data set can be described thus: NAD+-linked FAL-DH/GGAL-DH activity of solubilized hepatic microsomes. It counts as biochemical. Conditions: solubilized hepatic microsomes, NAD+-linked oxidation.
Data set [11] concerns the target dehydrogenase/reductase (SDR family) member 4 (Homo sapiens, UniProt Q9BTZ2). The data set can be described thus: Reduction of FAL and GGAL by dehydrogenase/reductase. It counts as biochemical.
Data set [12] has as its system human AKR 1B1. The settings on record: cited from earlier work.
The target of data set [13] is T7, AKR 1C1 (Homo sapiens, UniProt Q04828).
T7 sequence (Q04828 1-323): T5 sequence (P52895 1-323) with V38T, H47R, V54L, S87C, M151V, H170R, L172Q
The data set can be described thus: Kinetic constants for FAL and GGAL reduction, AKR1C1. It counts as biochemical.

Data set [14] addresses dicarbonyl-xylulose reductase (Homo sapiens, UniProt Q7Z4W1). The data set can be described thus: Reduction of FAL and GGAL by dicarbonyl-xylulose reductase. It is filed as biochemical.
The target in data set [15] is T8, AKR 1C4 (Homo sapiens, UniProt P17516).
T8 sequence (P17516 1-323): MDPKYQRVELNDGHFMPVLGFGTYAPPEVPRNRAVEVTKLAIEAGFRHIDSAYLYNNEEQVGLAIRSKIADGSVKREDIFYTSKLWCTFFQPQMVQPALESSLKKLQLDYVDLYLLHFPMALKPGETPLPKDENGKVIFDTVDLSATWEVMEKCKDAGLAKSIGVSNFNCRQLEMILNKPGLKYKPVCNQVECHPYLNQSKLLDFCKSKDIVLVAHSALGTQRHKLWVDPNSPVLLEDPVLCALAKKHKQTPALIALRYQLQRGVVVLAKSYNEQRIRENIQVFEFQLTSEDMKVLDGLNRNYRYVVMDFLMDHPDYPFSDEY
The data set can be described thus: Kinetic constants for FAL and GGAL reduction, AKR1C4. It counts as biochemical. The settings on record: 0.1 M potassium phosphate pH 7.4, 0.1 mM NADPH.

Data set [16] deals with FOH-DH and GGOH-DH partially purified from colon (Rattus norvegicus, UniProt P06757). It counts as biochemical. The settings on record: pH 7.4, 2 mM NAD+; mean of three determinations.
In data set [17] the target is FOH-DH and GGOH-DH partially purified from liver (Rattus norvegicus, UniProt P06757). It is filed as biochemical. Conditions: pH 7.4, 2 mM NAD+; mean of three determinations.
Data set [18] has as its target FOH-DH and GGOH-DH partially purified from lung (Rattus norvegicus, UniProt P41682). It is filed as biochemical. Conditions: pH 7.4, 2 mM NAD+; mean of three determinations.
For data set [19], the system named is HeLa cells. The data set can be described thus: Metabolism of [14C] FOH to FA in HeLa cells. It is filed as cell-based.
In data set [20] the target is FOH-DH and GGOH-DH partially purified from stomach (Rattus norvegicus, UniProt P41682). It counts as biochemical. The settings on record: pH 7.4, 2 mM NAD+; mean of three determinations.
The target of data set [21] is T3, AKR1C15. The data set can be described thus: Reduction of isoprenyl aldehydes by AKR1C15. Conditions: NADPH-linked reduction. It is filed as biochemical.
Data set [22] concerns gastric mucosa RGM1 cells. The data set can be described thus: Metabolism of [14C] GGOH to GGA in RGM1 cells. It is filed as cell-based, rat. The settings on record: 1 μM [14C] GGOH.
[23] abbreviates: 0.1 M potassium phosphate pH 7.4, 0.1 mM NADPH.
Setting [24] is: calculated from the specific activity with 10 μM GGAL.

Sequence of microsomal FAL-DH and GGAL-DH (P30839 whole entry): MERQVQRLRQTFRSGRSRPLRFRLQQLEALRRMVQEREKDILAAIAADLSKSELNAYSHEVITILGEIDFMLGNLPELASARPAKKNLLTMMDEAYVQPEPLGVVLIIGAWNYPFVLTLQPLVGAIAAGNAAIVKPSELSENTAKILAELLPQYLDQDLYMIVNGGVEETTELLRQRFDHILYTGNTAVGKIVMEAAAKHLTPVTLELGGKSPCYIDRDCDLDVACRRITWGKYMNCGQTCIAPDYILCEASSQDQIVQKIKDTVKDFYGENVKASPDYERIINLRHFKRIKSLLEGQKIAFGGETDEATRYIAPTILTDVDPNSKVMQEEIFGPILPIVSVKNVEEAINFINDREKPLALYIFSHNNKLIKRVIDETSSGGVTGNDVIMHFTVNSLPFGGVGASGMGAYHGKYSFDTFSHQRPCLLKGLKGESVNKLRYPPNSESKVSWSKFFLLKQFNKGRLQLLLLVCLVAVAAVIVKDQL
Sequence of dicarbonyl-xylulose reductase (Q7Z4W1 whole entry): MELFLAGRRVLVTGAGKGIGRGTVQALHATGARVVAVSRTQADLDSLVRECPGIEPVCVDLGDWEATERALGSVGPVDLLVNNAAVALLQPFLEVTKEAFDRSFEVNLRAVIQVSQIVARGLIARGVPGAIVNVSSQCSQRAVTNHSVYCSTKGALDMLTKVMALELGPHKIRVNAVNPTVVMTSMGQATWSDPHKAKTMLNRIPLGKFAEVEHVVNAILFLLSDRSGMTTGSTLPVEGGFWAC
Sequence of dehydrogenase/reductase (SDR family) member 4 (Q9BTZ2 whole entry): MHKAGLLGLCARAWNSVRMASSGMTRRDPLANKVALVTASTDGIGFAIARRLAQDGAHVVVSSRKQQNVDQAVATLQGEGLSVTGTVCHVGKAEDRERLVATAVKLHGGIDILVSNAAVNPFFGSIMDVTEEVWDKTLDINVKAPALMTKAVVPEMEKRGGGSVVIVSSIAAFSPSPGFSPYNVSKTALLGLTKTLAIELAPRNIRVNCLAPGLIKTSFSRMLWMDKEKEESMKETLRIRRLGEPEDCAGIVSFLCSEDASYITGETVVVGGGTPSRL
Sequence of FOH-DH and GGOH-DH partially purified from lung (P41682 whole entry): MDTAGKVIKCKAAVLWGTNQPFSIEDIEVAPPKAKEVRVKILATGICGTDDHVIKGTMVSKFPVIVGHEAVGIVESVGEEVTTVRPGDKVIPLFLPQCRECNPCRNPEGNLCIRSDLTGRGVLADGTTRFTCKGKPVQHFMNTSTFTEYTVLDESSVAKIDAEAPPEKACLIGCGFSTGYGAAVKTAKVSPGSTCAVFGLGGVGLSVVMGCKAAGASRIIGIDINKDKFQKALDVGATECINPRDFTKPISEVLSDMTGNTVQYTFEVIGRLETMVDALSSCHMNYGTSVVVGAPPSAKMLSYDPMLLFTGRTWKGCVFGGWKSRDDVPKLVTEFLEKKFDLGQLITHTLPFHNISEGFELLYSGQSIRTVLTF
Sequence of FOH-DH and GGOH-DH partially purified from stomach (P41682 whole entry): as above
Sequence of FOH-DH and GGOH-DH partially purified from colon (P06757 2-376): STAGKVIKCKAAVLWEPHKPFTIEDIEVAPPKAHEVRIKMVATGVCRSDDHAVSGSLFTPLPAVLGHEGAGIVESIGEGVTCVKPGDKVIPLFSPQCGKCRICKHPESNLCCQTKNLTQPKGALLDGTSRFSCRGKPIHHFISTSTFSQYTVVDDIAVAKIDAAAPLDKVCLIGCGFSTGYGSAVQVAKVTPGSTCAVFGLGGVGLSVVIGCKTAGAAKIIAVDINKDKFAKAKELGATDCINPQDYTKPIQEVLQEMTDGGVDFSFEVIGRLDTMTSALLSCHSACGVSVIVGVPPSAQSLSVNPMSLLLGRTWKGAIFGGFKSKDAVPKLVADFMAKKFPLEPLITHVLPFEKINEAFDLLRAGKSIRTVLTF
Sequence of FOH-DH and GGOH-DH partially purified from liver (P06757 whole entry): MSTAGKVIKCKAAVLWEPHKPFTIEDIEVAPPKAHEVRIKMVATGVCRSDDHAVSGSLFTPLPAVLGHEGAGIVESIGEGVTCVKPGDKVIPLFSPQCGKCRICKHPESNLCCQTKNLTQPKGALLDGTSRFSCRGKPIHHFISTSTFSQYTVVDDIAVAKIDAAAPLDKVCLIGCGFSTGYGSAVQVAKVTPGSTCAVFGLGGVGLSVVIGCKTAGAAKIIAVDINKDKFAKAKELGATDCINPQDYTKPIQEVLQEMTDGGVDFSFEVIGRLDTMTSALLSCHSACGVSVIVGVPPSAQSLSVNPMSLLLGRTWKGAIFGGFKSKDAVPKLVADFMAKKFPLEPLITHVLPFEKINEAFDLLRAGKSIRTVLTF
Sequence of human carbonyl reductase 1 (P16152 whole entry): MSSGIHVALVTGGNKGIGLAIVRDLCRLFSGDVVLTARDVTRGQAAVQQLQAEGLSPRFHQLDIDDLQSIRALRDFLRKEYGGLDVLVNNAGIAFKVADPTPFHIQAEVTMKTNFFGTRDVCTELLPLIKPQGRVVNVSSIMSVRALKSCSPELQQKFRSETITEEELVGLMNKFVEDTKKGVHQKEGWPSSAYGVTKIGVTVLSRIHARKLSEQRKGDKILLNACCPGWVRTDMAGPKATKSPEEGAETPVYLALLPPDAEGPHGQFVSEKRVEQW

Turning to `CC(C)=CCCC(C)=CCCC(C)=CC=O` [FAL, farnesal], the Km was 2.6 µM in data set [1]; 2.5 µM in data set [2]; 6 to 8 µM in [3]; 5.6 µM in data set [4]; 26 µM in data set [5]; 60 µM in data set [6] (setting [23]). The Km was 1.1 µM in data set [8] (setting [23]); 30 µM in data set [9]; 2 µM in data set [10]; 37 µM in [12] (setting [23]); 3.1 µM in [13] (setting [23]); 4.7 µM in data set [15]. For the same molecule, the kcat was 0.045 s⁻¹ in data set [1]; 0.383 s⁻¹ in data set [2]; 0.217 s⁻¹ in data set [6] (setting [23]); 0.03 s⁻¹ in [8] (setting [23]); 0.45 s⁻¹ in data set [12] (setting [23]); 0.0283 s⁻¹ in data set [13] (setting [23]). In addition, in data set [15], the kcat is 0.0183 s⁻¹. Further, the “reduction by the enzyme” value in [7], in [11] and in [14] was “hardly reduced” each time. Further, the Vmax in data set [10] was 12 mU/mg.

`CC(C)=CCC/C(C)=C/CC/C(C)=C/CO` [FOH, Farnesol]: the “Km values for substrate” value in [16] came to 1.8 µM; in data set [17] it was 0.7 µM; in [18], 23 µM; in data set [20], 29 µM. In addition, in data set [19] (AKR1C15-overexpressed HeLa cells compared to the control cells), the “metabolic rate from FOH to FA” value was “greatly decreased”. In data set [19] (control HeLa cells (vector alone), 20 μM [14C] FOH), the “metabolism of FOH” value is given as “rapidly converted into FA”.

With `CC(C)=CCC/C(C)=C/CC/C(C)=C/CC/C(C)=C/C=O` [GGAL, geranylgeranial], the Km is 0.3 µM in data set [1]; 0.9 µM in data set [2]; 0.2 to 0.5 µM in data set [3]; 0.2 µM in [21]; 2.1 µM in data set [5]; 3.9 µM in data set [9]. Besides, the Km amounted to 0.7 µM in data set [10] and 1.1 µM in data set [15]. Moreover, the catalytic constant (kcat) in [1] is 0.06 s⁻¹; in data set [2], 0.125 s⁻¹; in [15], 0.0147 s⁻¹. The “kcat/Km value relative to that for prostaglandin D2” value in data set [1] (higher than for prostaglandin D2, best known endogenous substrate) turned out to be 12 fold. Besides, the “kcat (value in parenthesis)” value in data set [6] (setting [24]) was “(0.8) ^b min^−1”; in data set [8] (setting [24]), “(0.4) ^b min^−1”; in [12] (setting [24]), “(0.3) ^b min^−1”; in [13] (setting [24]), “(0.3) ^b min^−1”. In addition, the “reduction by the enzyme” value in data set [7], in data set [11] and in data set [14] was “hardly reduced” each time. In addition, in data set [10], the Vmax was 4.2 mU/mg.

With `CC(C)=CCC/C(C)=C/CC/C(C)=C/CC/C(C)=C/CO` [GGOH, geranylgeraniol], the “Km values for substrate” value is 0.4 µM in [16], 0.4 µM in [17], 1.1 µM in data set [18] and 0.8 µM in data set [20]. Also, the “metabolism of GGOH” value in data set [22] was “metabolized into GGA”.

Broadly, the Km is the concentration of substrate that gives half-maximal velocity. In general, kcat refers to the number of substrate molecules converted per active site and unit of time at saturation.
